Data on one molecule can be found in patent US20140288102A1, “PREVENTION OF RECURRENCES OF URETHRAL STRICTURES FOLLOWING CONVENTIONAL THERAPY” (priority 2007, published 2014).

Where “and” joins values, the source holds several entries; their conditions need not be identical. Equal values may be shown once. Entries after “also recorded” stand apart in the source; their conditions may differ.

Assay [1] deals with New Zealand male rabbits. Description: Prevention of the onset of urethral strictures after electrocoagulation of the bulbar urethra (Example 1). It counts as in vivo, rabbit. Here is the method:
Near-circumferential, 15 mm long electrocoagulation of the bulbar urethra was performed endoscopically on 20 New Zealand male rabbits using a pediatric resectoscope and a round-ended electrocautery. The rabbits were randomized into 2 groups of 10 animals each. The first group received a diet containing 10 mg/kg of Halofuginone initiated 4 days before electrocoagulation and continued for 3 weeks. The second group received a standard chow, free of Halofuginone. Three weeks after electrocoagulation, the rabbits were examined by video urethrocystoscopy and retrograde urethrocystography and subsequently sacrificed for histological examination. The urethra was removed in one piece and fixed in 10% buffered formaldehyde. The histological examination was performed after the specimens were embedded in paraffin and stained with Masson trichrome, hematoxylin-eosin, and Sirius Red (IMEB, Inc., Chicago, Ill.) in order to evaluate fibrosis. With the latter staining method, collagen appears in red.

In assay [2] the test system is New Zealand male rabbits. Description: Prevention of the recurrence of urethral strictures following endoscopic internal urethrotomy (Example 2). It counts as in vivo, rabbit. Here is the method: Near-circumferential, 15 mm long electrocoagulation of the bulbar urethra was performed endoscopically on 48 New Zealand male rabbits using a pediatric resectoscope and a round-ended electrocautery. Three weeks after electrocoagulation, the urethral strictures were evaluated using video urethrocystoscopy and retrograde urethrocystography. […] The urethral lumen was reduced by 70-95% (mean 88.5%). The obtained strictures were 7 to 19 mm in length (mean 11.7). Endoscopic internal urethrotomy was performed on all surviving rabbits using a cold knife, under visual guidance with a 0.028-inch diameter endoscopic guidewire. A single deep incision was made at the 12 o'clock position in all animals. The rabbits were subsequently randomized into 2 groups: one study group receiving Halofuginone for 10 weeks starting on the day of the urethrotomy, and one control group without Halofuginone. The study group was fed on a diet containing 10 mg/kg of Halofuginone, whereas the control group received a normal, Halofuginone-free diet. The rabbits were then monitored and evaluated for urethral strictures if any of the following signs appeared: decrease in 24-hour urine output, anorexia, worsening of general health status with palpable bladder distension. In the absence of any of these signs, the animals were systematically evaluated for urethral strictures 10 weeks after urethrotomy. This evaluation was performed using video urethrocystoscopy and retrograde urethrocystography. Thereafter, the rabbits were sacrificed for histological examination. The entire urethra was removed and fixed in 10% buffered formaldehyde. The histological examination was performed after the specimens had been embedded in paraffin and stained with Masson trichrome, hematoxylin-eosin, and Sirius Red (IMEB, Inc., Chicago, Ill.) in order to evaluate fibrosis. With the latter staining method, collagen appears in red.

[3] abbreviates: the 2 treated rabbits with significant stricture, 3 weeks after electrocoagulation.

`O=C(CC1NCCC[C@H]1O)Cn1cnc2cc(Br)c(Cl)cc2c1=O` (stereo partly drawn) [Halofuginone]: in the assay on New Zealand male rabbits [1] (10 rabbits, diet containing 10 mg/kg Halofuginone from 4 days before electrocoagulation, continued 3 weeks, evaluated at 3 weeks, control 10 of 10, p<0.001), the “Nr. of urethral strictures (rabbits with significant urethral stricture)” value turned out to be 2. Moreover, the “number of rabbits with normal urethra” value with New Zealand male rabbits [1] (of 10 treated rabbits, 3 weeks after electrocoagulation) is 6. Moreover, in the assay on New Zealand male rabbits [1] (setting [3]), the “length of the significant strictures” value was 10 mm and 8 mm; the “reduction in urethral lumen caliber in the significant strictures” value is 70% and 90%. Moreover, the “histological study of the urethra (fibrosis)” value with New Zealand male rabbits [1] (treated rabbits without significant stricture) was “only focal alterations, with limited areas of fibrosis alternating with subnormal or normal urethral walls”. In addition, the “narrowing of the urethral lumen” value in the assay on New Zealand male rabbits [1] (two other treated rabbits, 3 weeks after electrocoagulation) was “less than 30%”. In addition, the “retrograde urethrocystogram of the bulbar urethra” value with New Zealand male rabbits [2] (a rabbit of the study group, 10 weeks after internal urethrotomy, FIG. 2B) is on record as “no recurrent stricture was seen”. Also, in the assay on New Zealand male rabbits [2] (diet containing 10 mg/kg Halofuginone for 10 weeks from day of urethrotomy, control 14/19, P 0.005), the “Post-urethrotomy recurrent stricture, Nr./total Nr.” value is 5/18. In the assay on New Zealand male rabbits [2] (diet containing 10 mg/kg Halofuginone for 10 weeks from day of urethrotomy, control 73, P 0.005), the “Post-urethrotomy recurrent stricture (%)” value was found to be 27%. The “Nr. according to extent of histological fibrosis: Moderate to severe” value in the assay on New Zealand male rabbits [2] (of 18 rabbits, control 2 of 19) was 1. For the same molecule, the “Nr. according to extent of histological fibrosis: Mild or absent” value in the assay with New Zealand male rabbits [2] (of 18 rabbits, control 5 of 19) was found to be 13. Besides, the “Nr. according to extent of histological fibrosis: Severe” value in the assay with New Zealand male rabbits [2] (of 18 rabbits, control 12 of 19) stood at 4. Also, the “histological study of the site of the prior urethrotomy (fibrosis)” value in the assay with New Zealand male rabbits [2] (rabbits with no recurrence of stricture, FIG. 3) is given as “no fibrosis or minimal fibrosis; also recorded: minimal fibrosis”. The “Post-urethrotomy recurrent stricture, average length” value in the assay with New Zealand male rabbits [2] (recurrent strictures in Halofuginone group, control 11.4) came out at 7.2 mm. Moreover, the “Post-urethrotomy recurrent stricture, average reduction of lumen” value with New Zealand male rabbits [2] (recurrent strictures in Halofuginone group, control 82.9) is 92%. Besides, in the assay on New Zealand male rabbits [2] (study group), the “number of rabbits with recurrent stricture diagnosed at the 10-week evaluation” value is on record as 2. For the same molecule, the “number of rabbits that developed no recurrence of urethral stricture” value with New Zealand male rabbits [2] (study group, 18 evaluable rabbits) is given as 13. Moreover, in the assay with New Zealand male rabbits [2] (study group, before the 10-week evaluation), the “number of rabbits with recurrence suspected on clinical signs and confirmed radiologically and endoscopically” value is listed as 3.
